According to US20110065138A1, “Quantitative Method For Detecting Yessotoxins In Fishery Products On Based On The Activation That The Toxin Produces In Cellular Phosphodiesterases And Therapeutic Use Of This Activation” (UNIVERSIDADE DE SANTIAGO DE COMPOSTELA, priority 2003, published 2011):

Tests used:
[1] = tested on: HEP-G2 cells; assay: HEP-G2 cell growth inhibition by crystal violet staining; type: cell-based; settings: Homo sapiens, HepG2, 10 μM of YTX, 48 hours incubation, absorbance 595 nm
Source text: Neoplasic cell growth inhibition is an indicator of antitumor activity widely used to describe antineoplasic properties of new drugs. […] The ability of YTX as a cytotoxic drug for hepatic carcinoma tumor cells is quantified in the present use. Cell growth inhibition can be determined according to different protocols described in the literature. One of these protocols is set forth below in which the response is quantified in the HEP-G2 cell line by means of crystal violet staining and subsequent acetylation.
a.—HEP-G2 cells are seeded on a microtitration plate with a density of 10000 cells per well. They are incubated for 24 hours with growth medium at 37° C. and 5% CO2.
b.—Different concentrations of YTX are added and it is incubated for 48 hours at 37° C. and 5% CO2.
c.—10 μL of 11% glutaraldehyde are added to fix the cells and it is incubated for 15 minutes. It is washed 3-4 times with distilled water.
d.—A 0.1% solution of crystal violet is added and the plate is shaken for 15 minutes.
e.—The dye is removed by washing with distilled water and it is subsequently dried.
f.—10% acetic acid is added and shaking is maintained for 15 minutes.
g.—Absorbance is read in a spectrophotometer at 595 nanometers.
h.—It was found with this protocol that 10 μM of YTX induce cell growth inhibition of about 82+/−1%.

[2] = tested on: rat mastocytes; assay: Inhibition of histamine release induced by immunological stimulus (ovalbumin) in rat mastocytes; type: cell-based
Source text: Immunological activation of mastocytes and basophils requires a temporary increase of cAMP. This increase is indispensable for cell response activation (Botana and MacGlashan, 1994). PDE activation cancels this initial cAMP peak, and therefore prevents cell activation. In the presence of YTX, i.e. with activated PDEs, cell response will be inhibited. The inhibiting effect can be used in antiallergic or antiasthmatic therapeutic strategies, these being two pathologies in which mastocytes play a predominant role (Metcalfe, Baram, D. et al., 1997). The present use describes the quantification of the inhibition that YTX produces on cell activation induced by immunological stimulus in mastocytes in rats. Cell response inhibition can be determined according to different protocols described in the literature. One in which the response is quantified according to the histamine released by mastocytes in rats into the extracellular medium is set forth below (Alfonso, Cabado, A. G. et al., 2000; Estévez, Vieytes, et al., 1994).
a.—The rats are sensitized 15 days before conducting the experiment. […]
g.—The histamine is finally quantified, converting it into a fluorescent molecule by reaction in a base medium with o-phthalic dialdehyde. The reaction is stopped with hydrochloric acid and the fluorescence is read at 360 nm excitation and 460 nm emission.

[3] = tested on: cellular phosphodiesterases (PDEs); assay: Activation of cellular phosphodiesterases (destruction of cAMP); type: biochemical
Source text: A usual way of detecting cellular PDE activity is to observe their ability to destroy cAMP. There is a fluorescent derivative of cAMP, anthraniloyl-cAMP (excitation wavelength: 350 nm, emission wavelength: 445 nm), the fluorescence of which decreases as it degrades. The decrease of fluorescence over time can be expressed as the destruction rate of cAMP. In the presence of PDEs, the destruction rate increases, and if these enzymes are activated, the degradation rate will be even greater. In the present invention the degradation rate of the fluorescent indicator anthraniloyl-cAMP in the presence of PDEs is determined and its variation when samples with YTX are added is studied. Fluorescence is read with a fluorimeter that is prepared for reading microtitration plates. The destruction rate is determined in the presence of several known concentrations of YTX. […]
The method is carried out in a microtitration plate in a temperature range between 22 and 37° C. and the fluorescence is measured at an excitation wavelength of 360 nanometers and an emission wavelength of 460 nanometers.
a.—Test buffer (10 mM Tris HCl+1 mM CaCl2 pH 7.4) is added in all the wells for a final incubation volume of 100 μL, and the corresponding amount, depending on the type of well, of anthraniloyl-cAMP. A first reading is performed for 2 minutes. […]

[4] = tested on: cellular phosphatases; settings: in contrast to okadaic acid (Draisci, Lucentini et al., 2000); cited from earlier work

C=CCC(=C)/C=C/[C@@](C)(O)[C@H]1O[C@@H]2C[C@@H]3O[C@@H]4C[C@@H]5O[C@@H]6C[C@@H]7O[C@@H]8C[C@@H]9O[C@@H]%10C[C@@H]%11O[C@](C)(CCOS(=O)(=O)O)[C@@H](OS(=O)(=O)O)C[C@H]%11O[C@H]%10C[C@H]9O[C@H]8CC[C@@]7(C)O[C@@]6(C)CC[C@H](C)[C@H]5O[C@H]4C[C@@]3(C)O[C@H]2CC1=C [YTX, yessotoxin]
inhibition at 10 µM [1]: ~82%
effect on histamine release activated by immunological stimulus [2]: histamine release inhibitor
effect on PDE activity [3]: PDE activator
effect on cellular phosphatases [4]: does not inhibit
